Measured values: ChEMBL document CHEMBL3774345, “Synthesis of new diarylamides with pyrimidinyl pyridine scaffold and evaluation of their anti-proliferative effect on cancer cell lines” (Bioorg Med Chem Lett, 2016)

Experiments:
Format in all cases: functional
Malme-3M = experiment: Cytotoxicity against human MALME-3M cells assessed as cell growth at 10 uM after 24 hrs by SRB assay; conditions: read-out: Activity
786-0 = experiment: Cytotoxicity against human 786-0 cells assessed as cell growth at 10 uM after 24 hrs by SRB assay; conditions: 786-0, 24 h, read-out: Activity
[1] = Cytotoxicity against human IGROV1 cells assessed as cell growth at 10 uM after 24 hrs by SRB assay; conditions: IGROV-1, 24 h, read-out: Activity
HT-29 = experiment: Cytotoxicity against human HT-29 cells assessed as cell growth at 10 uM after 24 hrs by SRB assay; conditions: HT-29, 24 h, read-out: Activity
[2] = Cytotoxicity against human NCI60 cells assessed as growth inhibition at 10 uM after 24 hrs by SRB assay; conditions: NCI60, 24 h
[3] = Cytotoxicity against human NCI-ADR-RES cells assessed as cell growth at 10 uM after 24 hrs by SRB assay; conditions: read-out: Activity
NCI-H226 = experiment: Cytotoxicity against human NCI-H226 cells assessed as cell growth at 10 uM after 24 hrs by SRB assay; conditions: NCI-H226, 24 h, read-out: Activity
T47D = experiment: Cytotoxicity against human T47D cells assessed as cell growth at 10 uM after 24 hrs by SRB assay; conditions: read-out: Activity
NCI-H522 = experiment: Cytotoxicity against human NCI-H522 cells assessed as cell growth at 10 uM after 24 hrs by SRB assay; conditions: NCI-H522, 24 h, read-out: Activity
MDA-MB-231 = experiment: Cytotoxicity against human MDA-MB-231 cells assessed as cell growth at 10 uM after 24 hrs by SRB assay; conditions: MDA-MB-231, 24 h, read-out: Activity
[4] = Cytotoxicity against human SF268 cells assessed as cell growth at 10 uM after 24 hrs by SRB assay; conditions: SF-268, 24 h, read-out: Activity
CCRF-CEM = experiment: Cytotoxicity against human CCRF-CEM cells assessed as cell growth at 10 uM after 24 hrs by SRB assay; conditions: read-out: Activity
[5] = Cytotoxicity against human SF295 cells assessed as cell growth at 10 uM after 24 hrs by SRB assay; conditions: SF-295, 24 h, read-out: Activity
[6] = Cytotoxicity against human OVCAR8 cells assessed as cell growth at 10 uM after 24 hrs by SRB assay; conditions: OVCAR-8, 24 h, read-out: Activity
M14 = experiment: Cytotoxicity against human M14 cells assessed as cell growth at 10 uM after 24 hrs by SRB assay; conditions: M14, 24 h, read-out: Activity
[7] = Cytotoxicity against human HCT116 cells assessed as cell growth at 10 uM after 24 hrs by SRB assay; conditions: HCT-116, 24 h, read-out: Activity
K562 = experiment: Cytotoxicity against human K562 cells assessed as cell growth at 10 uM after 24 hrs by SRB assay; conditions: K562, 24 h, read-out: Activity
SN12C = experiment: Cytotoxicity against human SN12C cells assessed as cell growth at 10 uM after 24 hrs by SRB assay; conditions: read-out: Activity
[8] = Cytotoxicity against human DU145 cells assessed as cell growth at 10 uM after 24 hrs by SRB assay; conditions: DU-145, 24 h, read-out: Activity
A498 = experiment: Cytotoxicity against human A498 cells assessed as cell growth at 10 uM after 24 hrs by SRB assay; conditions: A498, 24 h, read-out: Activity
[9] = Cytotoxicity against human HOP62 cells assessed as cell growth at 10 uM after 24 hrs by SRB assay; conditions: HOP-62, 24 h, read-out: Activity
[10] = Cytotoxicity against human SNB19 cells assessed as cell growth at 10 uM after 24 hrs by SRB assay; conditions: SNB-19, 24 h, read-out: Activity
[11] = Cytotoxicity against human Caki1 cells assessed as cell growth at 10 uM after 24 hrs by SRB assay; conditions: CAKI-1, 24 h, read-out: Activity
[12] = Cytotoxicity against human OVCAR4 cells assessed as cell growth at 10 uM after 24 hrs by SRB assay; conditions: OVCAR-4, 24 h, read-out: Activity
MDA-MB-435 = experiment: Cytotoxicity against human MDA-MB-435 cells assessed as cell growth at 10 uM after 24 hrs by SRB assay; conditions: MDA-MB-435, 24 h, read-out: Activity
[13] = Cytotoxicity against human SKOV3 cells assessed as cell growth at 10 uM after 24 hrs by SRB assay; conditions: SK-OV-3, 24 h, read-out: Activity
[14] = Cytotoxicity against human RXF393 cells assessed as cell growth at 10 uM after 24 hrs by SRB assay; conditions: RXF 393, 24 h, read-out: Activity
U-251 = experiment: Cytotoxicity against human U251 cells assessed as cell growth at 10 uM after 24 hrs by SRB assay; conditions: U-251, 24 h, read-out: Activity
MCF7 = experiment: Cytotoxicity against human MCF7 cells assessed as cell growth at 10 uM after 24 hrs by SRB assay; conditions: MCF7, 24 h, read-out: Activity
[15] = Cytotoxicity against human OVCAR5 cells assessed as cell growth at 10 uM after 24 hrs by SRB assay; conditions: OVCAR-5, 24 h, read-out: Activity
NCI-H322M = experiment: Cytotoxicity against human NCI-H322M cells assessed as cell growth at 10 uM after 24 hrs by SRB assay; conditions: read-out: Activity
[16] = Cytotoxicity against human COLO205 cells assessed as cell growth at 10 uM after 24 hrs by SRB assay; conditions: COLO 205, 24 h, read-out: Activity
[17] = Cytotoxicity against human RPMI8226 cells assessed as cell growth at 10 uM after 24 hrs by SRB assay; conditions: RPMI-8226, 24 h, read-out: Activity
[18] = Cytotoxicity against human HCC2998 cells assessed as cell growth at 10 uM after 24 hrs by SRB assay; conditions: HCC 2998, 24 h, read-out: Activity
[19] = Cytotoxicity against human PC3 cells assessed as cell growth at 10 uM after 24 hrs by SRB assay; conditions: PC-3, 24 h, read-out: Activity
[20] = Cytotoxicity against human OVCAR3 cells assessed as cell growth at 10 uM after 24 hrs by SRB assay; conditions: OVCAR-3, 24 h, read-out: Activity
A549 = experiment: Cytotoxicity against human A549 cells assessed as cell growth at 10 uM after 24 hrs by SRB assay; conditions: A549, 24 h, read-out: Activity
[21] = Cytotoxicity against human TK10 cells assessed as cell growth at 10 uM after 24 hrs by SRB assay; conditions: TK-10, 24 h, read-out: Activity
KM12 = experiment: Cytotoxicity against human KM12 cells assessed as cell growth at 10 uM after 24 hrs by SRB assay; conditions: KM12, 24 h, read-out: Activity

**Q.** With `COc1cc(OC)cc(C(=O)Nc2cc(-c3cccnc3)nc(NCCCN3CCOCC3)n2)c1` as the compound, how does the growth at 10 µM (Malme-3M) read?
**A.** Its growth at 10 µM is 110%.

**Q.** And the growth at 10 µM (786-0)?
**A.** The growth at 10 µM was 84%.

**Q.** What about the growth at 10 µM [1] of the same compound?
**A.** Its growth at 10 µM is 97.4%.

**Q.** And the growth at 10 µM (HT-29)?
**A.** Its growth at 10 µM is 85.2%.

**Q.** And the inhibition at 10 µM [2]?
**A.** Its inhibition at 10 µM is 8.88%.

**Q.** What about the growth at 10 µM [3] of the same compound?
**A.** The growth at 10 µM was 95.4%.

**Q.** And the growth at 10 µM (NCI-H226)?
**A.** Its growth at 10 µM is 85.7%.

**Q.** What about the growth at 10 µM (T47D) of the same compound?
**A.** The growth at 10 µM was 72.8%.

**Q.** What about the growth at 10 µM (NCI-H522) of the same compound?
**A.** Its growth at 10 µM is 92%.

**Q.** What about the growth at 10 µM (MDA-MB-231) of the same compound?
**A.** The growth at 10 µM was 79.6%.

**Q.** What about the growth at 10 µM [4] of the same compound?
**A.** The growth at 10 µM was 94.1%.

**Q.** What about the growth at 10 µM (CCRF-CEM) of the same compound?
**A.** The growth at 10 µM was 90.8%.

**Q.** What about the growth at 10 µM [5] of the same compound?
**A.** The growth at 10 µM was 101%.

**Q.** And the growth at 10 µM [6]?
**A.** The growth at 10 µM was 91.8%.

**Q.** And the growth at 10 µM (M14)?
**A.** The growth at 10 µM was 104%.

**Q.** What about the growth at 10 µM [7] of the same compound?
**A.** Its growth at 10 µM is 89.2%.

**Q.** What about the growth at 10 µM (K562) of the same compound?
**A.** The growth at 10 µM was 74.1%.

**Q.** What about the growth at 10 µM (SN12C) of the same compound?
**A.** Its growth at 10 µM is 86.4%.

**Q.** What about the growth at 10 µM [8] of the same compound?
**A.** Its growth at 10 µM is 104%.

**Q.** What about the growth at 10 µM (A498) of the same compound?
**A.** The growth at 10 µM was 83.3%.

**Q.** And the growth at 10 µM [9]?
**A.** The growth at 10 µM was 87.8%.

**Q.** And the growth at 10 µM [10]?
**A.** Its growth at 10 µM is 98.7%.

**Q.** And the growth at 10 µM [11]?
**A.** Its growth at 10 µM is 101%.

**Q.** What about the growth at 10 µM [12] of the same compound?
**A.** The growth at 10 µM was 117%.

**Q.** What about the growth at 10 µM (MDA-MB-435) of the same compound?
**A.** Its growth at 10 µM is 102%.

**Q.** And the growth at 10 µM [13]?
**A.** The growth at 10 µM was 93.9%.

**Q.** What about the growth at 10 µM [14] of the same compound?
**A.** The growth at 10 µM was 93.9%.

**Q.** And the growth at 10 µM (U-251)?
**A.** The growth at 10 µM was 90.5%.

**Q.** And the growth at 10 µM (MCF7)?
**A.** Its growth at 10 µM is 88%.

**Q.** What about the growth at 10 µM [15] of the same compound?
**A.** The growth at 10 µM was 100%.

**Q.** What about the growth at 10 µM (NCI-H322M) of the same compound?
**A.** The growth at 10 µM was 90.9%.

**Q.** And the growth at 10 µM [16]?
**A.** Its growth at 10 µM is 94.3%.

**Q.** What about the growth at 10 µM [17] of the same compound?
**A.** Its growth at 10 µM is 79.1%.

**Q.** And the growth at 10 µM [18]?
**A.** The growth at 10 µM was 123%.

**Q.** What about the growth at 10 µM [19] of the same compound?
**A.** The growth at 10 µM was 85.4%.

**Q.** What about the growth at 10 µM [20] of the same compound?
**A.** The growth at 10 µM was 105%.

**Q.** What about the growth at 10 µM (A549) of the same compound?
**A.** The growth at 10 µM was 92.6%.

**Q.** And the growth at 10 µM [21]?
**A.** Its growth at 10 µM is 95.5%.

**Q.** What about the growth at 10 µM (KM12) of the same compound?
**A.** Its growth at 10 µM is 104%.

**Q.** Which results are given for `O=C(Nc1cc(-c2cccnc2)nc(NCCCN2CCOCC2)n1)c1ccc(F)cc1Cl`?
**A.** growth at 10 µM (Malme-3M): 108%; growth at 10 µM (786-0): 89.2%; growth at 10 µM [1]: 95.9%; growth at 10 µM (HT-29): 87.3%; inhibition at 10 µM [2]: 3.57%; growth at 10 µM [3]: 94.5%; growth at 10 µM (NCI-H226): 108%; growth at 10 µM (T47D): 99.5%; growth at 10 µM (NCI-H522): 87.1%; growth at 10 µM (MDA-MB-231): 93.2%; growth at 10 µM [4]: 94.9%; growth at 10 µM (CCRF-CEM): 88.3%; growth at 10 µM [5]: 100%; growth at 10 µM [6]: 94.2%; growth at 10 µM (M14): 102%; growth at 10 µM [7]: 106%; growth at 10 µM (K562): 83.3%; growth at 10 µM (SN12C): 92.1%; growth at 10 µM [8]: 112%; growth at 10 µM (A498): 81.2%; growth at 10 µM [9]: 95.5%; growth at 10 µM [10]: 94.2%; growth at 10 µM [11]: 90.3%; growth at 10 µM [12]: 115%; growth at 10 µM (MDA-MB-435): 106%; growth at 10 µM [13]: 101%; growth at 10 µM [14]: 102%; growth at 10 µM (U-251): 92%; growth at 10 µM (MCF7): 87.4%; growth at 10 µM [15]: 100%; growth at 10 µM (NCI-H322M): 88.2%; growth at 10 µM [16]: 99.5%; growth at 10 µM [17]: 90%; growth at 10 µM [18]: 98.4%; growth at 10 µM [19]: 91.2%; growth at 10 µM [20]: 106%; growth at 10 µM (A549): 102%; growth at 10 µM [21]: 97.1%; growth at 10 µM (KM12): 104%
